Biological target: T1, PoABF62 (Penicillium oxalicum, UniProt A0A2R4KZP3)
T1 construct: heterologously produced (fungal host), purified, supplied by Novozymes
Assay: HPAEC-PAD of hydrolysis products
Assay type: biochemical
Conditions: 10 mM ammonium acetate pH 5.0, 40 °C, 24 h, 100 μg/mL substrate

T1 sequence (A0A2R4KZP3 31-331): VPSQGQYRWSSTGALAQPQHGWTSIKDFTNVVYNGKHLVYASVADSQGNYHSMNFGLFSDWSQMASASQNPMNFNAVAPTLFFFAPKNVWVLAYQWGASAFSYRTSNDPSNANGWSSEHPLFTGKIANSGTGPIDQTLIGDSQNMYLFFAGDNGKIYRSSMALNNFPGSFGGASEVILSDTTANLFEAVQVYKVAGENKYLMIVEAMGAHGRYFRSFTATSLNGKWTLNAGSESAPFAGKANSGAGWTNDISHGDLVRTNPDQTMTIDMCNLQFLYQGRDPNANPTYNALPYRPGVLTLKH

Compound: OC[C@@H]1O[C@@H](O[C@H]2[C@H](O[C@@H]3CO[C@@H](O[C@@H]4COC(O)[C@H](O)[C@H]4O)[C@H](O)[C@H]3O)OC[C@@H](O)[C@@H]2O)[C@H](O)[C@H]1O (stereo partly drawn) [A2XX, 2-α-L-arabinofuranosyl-xylotriose]
- HPAEC-PAD of hydrolysis products: PoABF62 and MgABF51 were highly active on all monosubstituted AXOS

Compound: OC[C@@H]1O[C@@H](O[C@@H]2[C@@H](O)[C@H](O[C@@H]3CO[C@@H](O[C@@H]4COC(O)[C@H](O)[C@H]4O)[C@H](O)[C@H]3O)OC[C@H]2O[C@@H]2OC[C@@H](O)[C@H](O)[C@H]2O)[C@H](O)[C@H]1O (stereo partly drawn) [XA3XX, 3-α-L-arabinofuranosyl-xylotetraose]
- HPAEC-PAD of hydrolysis products (XA2XX/XA3XX mixture): PoABF62 and MgABF51 were highly active on all monosubstituted AXOS

Source: article PMC9693073, “Two Subgroups within the GH43_36 α-L-Arabinofuranosidase Subfamily Hydrolyze Arabinosyl from Either Mono-or Disubstituted Xylosyl Units in Wheat Arabinoxylan” (International Journal of Molecular Sciences, 2022)
